Laboratory results taken from PMC2778948, “A Novel Enediynyl Peptide Inhibitor of Furin That Blocks Processing of proPDGF-A, B and proVEGF-C” (PLoS ONE, 2009).
Where “and” joins values, the source holds several entries; their conditions need not be identical. Identical values can stand only once. Like-named read-outs stand apart in the source and are kept apart here.

Assays:
[1] = biological target: T1, recombinant h (human) furin (Homo sapiens, UniProt P09958); assay: In vitro furin assay with Boc-RVRR-MCA (50 µM), aromatic enediyne compounds; assay type: biochemical; conditions: for inhibition at 100 µM: read-out: Furin inhibition at a single concentration
T1 construct: pure soluble recombinant h (human) furin; purchased New England Biolabs
Excerpt: (§1) Most aromatic enediyne compounds are chemically highly reactive and can easily generate upon heating reactive bis-radical species via Bergman cyclo-aromatization reaction, [32]. It is a possibility that these reactive intermediates may then react with one or more of the catalytic amino acid residues His, Ser or Asp of PC-enzymes leading to chemical modifications of latter. This notion is supported by several studies involving interactions of amino acids either free or within protein sequences [41]–[46]. Based on this rationale we proposed that such types of molecules may therefore inhibit the protease activities of these enzymes. To test this hypothesis, we first synthesized several aromatic enediyne derivatives and examined in vitro their effects on proteolytic activities of three key members of PC-family enzymes namely furin, PC5 and PC7. In vitro enzyme assay of PCs against Boc-RVRR-MCA substrate (50 µM), in the absence and presence of various synthetic aromatic enediyne compounds (Fig. 1) indicated weak to modest inhibitory activities of these compounds. […] This is the first report of PC-inhibitory activity of an enediyne compound. This finding prompted us to the idea of incorporating an enediyne function within a peptide sequence which may enhance the potency and selectivity of furin inhibition. To accomplish this, we designed and synthesized an enediynyl amino acid (Eda) derivative with its amino terminal protected by Fmoc (9H-fluoren-9-ylmethoxy carbonyl) group so that it can be directly used in solid phase peptide synthesis.
Figure 1 List of synthetic aromatic enediyne derivatives and their effects on protease activities of Proprotein Convertases Furin, PC5 and PC7. […] The enzyme assay was carried out by using the fluorogenic peptide substrate Boc-RVRR-MCA (50 µM final concentration) as described in [27]. ND = not determined. TEXT PRINTED IN THE PICTURE: AB-1: MW 438; Furin: 29.9 ± 1.5; PC5: 33% (57 mM); PC7: 30.4 ± 3.5 | AB-2: MW 390; Furin: 10.5 ± 1.8; PC5: 34.5 ± 5.8; PC7: 8.5 ± 1.8 | AB-3: MW 506; Furin: 14.2 ± 1.8; PC5: 17.2± 3.4 | AB-4: MW 258; Furin: 10% at 100 μM | AB-5: MW 259; Furin: 12% at 100 μM | AB-6: MW 780; Furin: 192 ± 6.7 | AB-6-Ni: MW 838; Furin: 160 ± 2.5
While pure soluble recombinant h (human) furin was obtained commercially from New England Biolabs (Boston, Ma, USA), recombinant m (mouse) PC5 and soluble hPC7 were obtained in partially purified form as described earlier.

[2] = biological target: T2, recombinant m (mouse) PC5 (Mus musculus, UniProt Q04592); assay: In vitro PC5 assay with Boc-RVRR-MCA (50 µM), aromatic enediyne compounds; assay type: biochemical
T2 construct: made in house
Excerpt: as §1, with “This finding prompted us to the idea of incorporating an enediyne function within a peptide sequence which may enhance the potency and selectivity of furin inhibition. To accomplish this, we designed and synthesized an enediynyl amino acid (Eda) derivative with its amino terminal protected by Fmoc (9H-fluoren-9-ylmethoxy carbonyl) group so that it can be directly used in solid phase peptide synthesis.” left out
(§2) Figure 1 List of synthetic aromatic enediyne derivatives and their effects on protease activities of Proprotein Convertases Furin, PC5 and PC7. […] ND = not determined. […]

[3] = biological target: T3, soluble hPC7 (Homo sapiens, UniProt Q16549); assay: In vitro PC7 assay with Boc-RVRR-MCA (50 µM), aromatic enediyne compounds; assay type: biochemical
T3 construct: soluble hPC7 were obtained in partially purified form; made in house
T3 sequence (Q16549 142-667 limits assumed): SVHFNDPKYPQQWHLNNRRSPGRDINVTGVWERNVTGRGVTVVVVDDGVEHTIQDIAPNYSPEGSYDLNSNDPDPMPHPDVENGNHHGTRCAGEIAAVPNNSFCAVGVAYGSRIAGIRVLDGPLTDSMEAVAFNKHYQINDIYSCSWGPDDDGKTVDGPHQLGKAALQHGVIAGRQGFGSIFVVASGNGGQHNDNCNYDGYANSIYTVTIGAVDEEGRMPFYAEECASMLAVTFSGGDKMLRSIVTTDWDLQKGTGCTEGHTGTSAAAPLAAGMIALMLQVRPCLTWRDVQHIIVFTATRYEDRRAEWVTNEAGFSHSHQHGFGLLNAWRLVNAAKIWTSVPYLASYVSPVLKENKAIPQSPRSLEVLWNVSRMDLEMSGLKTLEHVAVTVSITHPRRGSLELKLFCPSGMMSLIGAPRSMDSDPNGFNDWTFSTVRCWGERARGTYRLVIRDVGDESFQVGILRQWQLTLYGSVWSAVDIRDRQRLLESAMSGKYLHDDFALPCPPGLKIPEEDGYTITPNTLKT
Excerpt: as §1, with “This finding prompted us to the idea of incorporating an enediyne function within a peptide sequence which may enhance the potency and selectivity of furin inhibition. To accomplish this, we designed and synthesized an enediynyl amino acid (Eda) derivative with its amino terminal protected by Fmoc (9H-fluoren-9-ylmethoxy carbonyl) group so that it can be directly used in solid phase peptide synthesis.” left out
as §2

[4] = test system: furin-mediated processing of pro-PDGF-B in CHO cells; assay: Processing of proPDGF-B in CHO cells (western blot); assay type: cell-based; conditions: for Block of processing of 31 kDa pro-PDGF-B to 17 kDa mature form: 0.5 to 15 µM
Experimental: CHO-cells expressing endogenous proPDGF-B [58] were grown as described above in the absence and presence of various concentrations ranging from 0.5 to 15 µM of either furin-Eda peptide or α1-Pdx, a known furin inhibitor [50]. Western blots were performed for the presence of proPDGF-B and its processed form using PDGF-B specific antibody. In parallel samples were also analyzed for actin levels.

[5] = test system: furin-mediated processing of proVEGF-C in CHO cells; assay: Processing of proVEGF-C in CHO cells (western blot); assay type: cell-based; conditions: 50 µM
Excerpt: (§3) The result was compared in parallel with the commercial furin inhibitor Dec (decanoyl)-RVRR-cmk (chloromethyl ketone) and the 83-mer synthetic full length prodomain protein of hfurin [49]. […] This was reflected by the strong appearance of 22 kDa proPDGF-A band which was completely absent in the control experiment done in parallel without the presence of any inhibitor. […] The effect was compared in parallel with that done with the known furin inhibitor dec-RVRR-cmk.
CHO-cells expressing FLAG-labeled proVEGF-C [57] were grown in DMEM medium as described above in the absence and presence of furin-Eda peptide and the furin inhibitor Dec-RVRR-cmk (each 50 µM concentration). The presence of VEGF-C precursor and its C-terminal processed form generated by furin cleavage were assessed by western blot analysis using FLAG antibody while the level of actin (control house keeping protein) was analyzed by immunoblot for quantitation purpose.

[6] = test system: furin processing of proPDGF-A in CHO cells; assay: Processing of FLAG-tagged proPDGF-A in CHO cells (western blot); assay type: cell-based; conditions: 24 h, FLAG antibody western blot
Excerpt: as §3
CHO-cells expressing FLAG-tagged PDGF-A were grown in DMEM medium as described (43) until the cells achieved ∼80% confluency (24 h), At this stage the medium was removed, cells were washed and grown in fresh buffer supplemented with furin-Eda peptide (50 µM final concentration). The media and cells were harvested after another 24 h cell growth. The collected media were concentrated ∼20-fold using centricon filtration system (Amersham Biosciences Inc, cut off MW = 3 kDa) and subjected to western blot analysis using FLAG antibody for the presence of full length proPDGF-A and its C-terminal mature form obtained following cleavage by endogenous furin present in CHO cells. […] For quantitative purpose, each sample was also analyzed for the presence of actin by immunoblot using a specific antibody.

T2 sequence (Q04592 117-1877): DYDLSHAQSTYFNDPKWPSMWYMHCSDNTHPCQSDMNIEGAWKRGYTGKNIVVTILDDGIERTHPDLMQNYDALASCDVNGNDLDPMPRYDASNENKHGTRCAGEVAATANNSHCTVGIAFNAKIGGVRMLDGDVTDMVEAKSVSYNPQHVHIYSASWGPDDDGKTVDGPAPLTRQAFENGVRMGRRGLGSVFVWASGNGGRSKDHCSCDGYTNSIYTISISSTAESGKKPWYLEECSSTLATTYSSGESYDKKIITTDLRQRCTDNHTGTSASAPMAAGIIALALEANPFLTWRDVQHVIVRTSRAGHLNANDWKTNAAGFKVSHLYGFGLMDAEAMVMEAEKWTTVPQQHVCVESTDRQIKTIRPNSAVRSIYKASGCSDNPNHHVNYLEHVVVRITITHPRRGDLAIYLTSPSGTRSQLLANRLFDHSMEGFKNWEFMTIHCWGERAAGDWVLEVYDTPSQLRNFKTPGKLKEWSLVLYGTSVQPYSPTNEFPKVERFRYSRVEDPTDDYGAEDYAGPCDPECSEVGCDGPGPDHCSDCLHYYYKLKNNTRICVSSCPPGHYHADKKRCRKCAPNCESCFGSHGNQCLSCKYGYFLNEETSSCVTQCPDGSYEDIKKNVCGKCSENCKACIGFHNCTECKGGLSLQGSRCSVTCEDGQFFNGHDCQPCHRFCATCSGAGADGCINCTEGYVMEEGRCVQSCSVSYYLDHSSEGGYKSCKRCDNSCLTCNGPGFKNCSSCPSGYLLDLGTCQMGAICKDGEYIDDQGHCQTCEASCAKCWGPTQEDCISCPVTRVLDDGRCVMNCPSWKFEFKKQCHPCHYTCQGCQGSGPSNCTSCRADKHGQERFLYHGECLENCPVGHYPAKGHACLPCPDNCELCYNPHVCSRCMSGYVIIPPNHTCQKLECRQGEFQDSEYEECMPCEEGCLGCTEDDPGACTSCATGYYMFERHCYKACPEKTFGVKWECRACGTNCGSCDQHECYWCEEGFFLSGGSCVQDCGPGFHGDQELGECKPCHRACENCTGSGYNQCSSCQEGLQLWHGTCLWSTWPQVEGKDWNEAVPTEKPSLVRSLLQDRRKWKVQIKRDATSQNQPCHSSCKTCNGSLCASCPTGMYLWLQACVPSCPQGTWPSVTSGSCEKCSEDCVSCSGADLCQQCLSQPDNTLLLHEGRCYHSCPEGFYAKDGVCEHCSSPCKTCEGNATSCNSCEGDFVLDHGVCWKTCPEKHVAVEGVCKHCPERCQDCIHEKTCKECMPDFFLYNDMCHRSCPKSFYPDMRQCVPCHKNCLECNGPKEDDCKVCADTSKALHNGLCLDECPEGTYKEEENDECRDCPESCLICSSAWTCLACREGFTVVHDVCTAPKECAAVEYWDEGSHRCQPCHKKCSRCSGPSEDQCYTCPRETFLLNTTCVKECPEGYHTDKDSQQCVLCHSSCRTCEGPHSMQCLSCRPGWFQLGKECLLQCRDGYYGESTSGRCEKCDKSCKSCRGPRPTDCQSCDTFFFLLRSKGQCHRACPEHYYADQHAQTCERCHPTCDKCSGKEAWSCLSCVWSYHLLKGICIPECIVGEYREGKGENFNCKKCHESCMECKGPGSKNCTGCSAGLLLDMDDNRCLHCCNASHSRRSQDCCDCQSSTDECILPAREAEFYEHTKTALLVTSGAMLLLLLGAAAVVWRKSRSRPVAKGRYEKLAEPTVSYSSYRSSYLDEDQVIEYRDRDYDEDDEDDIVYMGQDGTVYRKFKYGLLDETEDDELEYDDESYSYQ
T1 sequence (P09958 108-715 limits assumed): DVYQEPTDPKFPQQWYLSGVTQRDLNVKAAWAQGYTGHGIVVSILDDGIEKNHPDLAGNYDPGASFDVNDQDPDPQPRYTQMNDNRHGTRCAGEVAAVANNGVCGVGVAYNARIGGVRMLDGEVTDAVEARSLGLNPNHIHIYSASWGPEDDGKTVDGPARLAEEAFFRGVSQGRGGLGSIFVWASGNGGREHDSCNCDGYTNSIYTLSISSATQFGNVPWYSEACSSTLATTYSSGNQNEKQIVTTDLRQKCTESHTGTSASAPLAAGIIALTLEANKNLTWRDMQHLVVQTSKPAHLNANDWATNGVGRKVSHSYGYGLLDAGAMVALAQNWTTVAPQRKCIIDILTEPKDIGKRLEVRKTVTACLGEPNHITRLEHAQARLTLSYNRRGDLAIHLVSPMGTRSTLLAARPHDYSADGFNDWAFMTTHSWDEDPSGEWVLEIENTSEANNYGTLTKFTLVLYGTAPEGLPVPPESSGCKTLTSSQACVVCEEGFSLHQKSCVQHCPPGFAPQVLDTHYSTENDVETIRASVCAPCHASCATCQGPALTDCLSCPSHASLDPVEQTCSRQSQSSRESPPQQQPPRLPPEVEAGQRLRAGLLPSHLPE

Molecule: C1#Cc2ccccc2C#CCN(Cc2ccccc2)CCN(Cc2ccccc2)C1 [AB-2]
- IC50 [1]: 10.5 µM
- IC50 ([2]; IC50 for inhibition of PC5, Boc-RVRR-MCA 50 µM final concentration): 34 µM and 34.5 µM
- IC50 [3]: 8.5 µM

Molecule: Cc1ccc(S(=O)(=O)N2CC#Cc3ccccc3C#CCN(S(=O)(=O)c3ccc(C)cc3)c3cccc2c3)cc1 [AB-3]
- IC50 ([1]; read-out: IC50 for inhibition of furin, Boc-RVRR-MCA 50 µM final concentration): 14.2 ± 1.8 µM
- IC50 ([2]; read-out: IC50 for inhibition of PC5, Boc-RVRR-MCA 50 µM final concentration): 17.2 ± 3.4 µM
- Effect on PC7 protease activity ([3]; Boc-RVRR-MCA 50 µM): minor protease activating effect

Molecule: C1#Cc2ccccc2C#CCNc2cccc(c2)NC1 [AB-4]
- inhibition at 100 µM [1]: 10%

Molecule: C1#Cc2ccccc2C#CCNc2cccc(n2)NC1 [AB-5]
- inhibition at 100 µM [1]: 12%

Molecule: C1#Cc2ccccc2C#CCN(Cc2ccccc2)CCN(Cc2ccccc2)CC#Cc2ccccc2C#CCN(Cc2ccccc2)CCN(Cc2ccccc2)C1 [AB-6]
- IC50 [1]: 192 ± 6.7 µM

Molecule: CC(C)[C@H](NC(=O)[C@H](CCC(N)=O)NC(=O)[C@@H](N)CCC(N)=O)C(=O)N[C@@H](C)C(=O)N[C@@H](CCCCN)C(=O)N[C@@H](CCCNC(=N)N)C(=O)N[C@@H](CCCNC(=N)N)C(=O)N[C@H](C(=O)N[C@@H](CCCCN)C(=O)N[C@@H](CCCNC(=N)N)C(=O)NCCC#Cc1ccccc1C#CCCC(=O)N[C@@H](CC(=O)O)C(=O)N[C@H](C(=O)N[C@@H](Cc1ccc(O)cc1)C(=O)N[C@@H](CCC(N)=O)C(=O)N[C@@H](CCC(=O)O)C(N)=O)C(C)C)[C@@H](C)O [furin-Eda-peptide (II)]
- Effect on formation of 22 kDa intermediate form of PDGF-B [4]: neither inhibitors displayed any effect
- Block of processing of 31 kDa pro-PDGF-B to 17 kDa mature form [4]: block furin-mediated processing
- Block of cleavage of 50 kDa proVEGF-C to 28 kDa mature VEGF-C [5]: block significantly
- Block of cleavage of 22 kDa pro-PDGF-A to 14 kDa mature PDGF-A ([6]; 50 µM): block efficiently

Molecule: Dec (decanoyl)-RVRR-cmk (chloromethyl ketone) [Dec-RVRR-cmk, reference compound]
- Block of cleavage of 50 kDa proVEGF-C to 28 kDa mature VEGF-C [5]: block significantly
- Block of cleavage of 22 kDa pro-PDGF-A to 14 kDa mature PDGF-A ([6]; 10 and 50 µM): block efficiently

Molecule: α1-Pdx: bioengineered protein, known potent inhibitor of furin
- Effect on formation of 22 kDa intermediate form of PDGF-B [4]: neither inhibitors displayed any effect
- Block of processing of 31 kDa pro-PDGF-B to 17 kDa mature form [4]: highly comparable
